{"source": "patent US11584740B2", "about": "(priority 2017, dated 2023)", "key": {"[1]": {"system": "Botryotinia fuckeliana (Botrytis cinerea)", "assay": "Botryotinia fuckeliana (Botrytis cinerea) / liquid culture (gray mould)", "format": "cell-based", "conditions": "20 ppm; compared to untreated control; inhibition of growth determined photometrically 3-4 days after application, 24° C.", "protocol": "Botryotinia fuckeliana (Botrytis cinerea)/Liquid Culture (Gray Mould)\n(§1) Conidia of the fungus from cryogenic storage are directly mixed into nutrient broth (Vogels broth). After placing a (DMSO) solution of test compound into a microtiter plate (96-well format), the nutrient broth containing the fungal spores is added. The test plates are incubated at 24° C. and the inhibition of growth is determined photometrically 3-4 days after application."}, "[2]": {"system": "Glomerella lagenarium (Colletotrichum lagenarium)", "assay": "Glomerella lagenarium (Colletotrichum lagenarium) / liquid culture (anthracnose)", "format": "cell-based", "conditions": "20 ppm; compared to untreated control; inhibition of growth measured photometrically 3-4 days after application, 24° C.", "protocol": "Glomerella Lagenarium (Colletotrichum lagenarium)/Liquid Culture (Anthracnose)\nas §1, with “(PDB potato dextrose” for “(Vogels”, “measured” for “determined”"}, "Fusarium culmorum": {"system": "Fusarium culmorum", "format": "cell-based", "conditions": "20 ppm; compared to untreated control; inhibition of growth determined photometrically 3-4 days after application, 24° C."}, "Gaeumannomyces graminis": {"system": "Gaeumannomyces graminis", "assay": "Gaeumannomyces graminis / liquid culture (take-all of cereals)", "format": "cell-based", "conditions": "20 ppm; compared to untreated control; inhibition of growth determined photometrically 4-5 days after application, 24° C.", "protocol": "Gaeumannomyces graminis/Liquid Culture (Take-all of Cereals)\nas §1, with “Mycelial fragments of” for “Conidia of”, “storage were” for “storage are”, “broth (PDB potato dextrose” for “broth (Vogels”, “spores iss” for “spores is”, “photometrically 4-5” for “photometrically 3-4”"}, "[3]": {"system": "Monographella nivalis (Microdochium nivale)", "assay": "Monographella nivalis (Microdochium nivale) / liquid culture (foot rot cereals)", "format": "cell-based", "conditions": "20 ppm; compared to untreated control; inhibition of growth determined photometrically 4-5 days after application, 24° C.", "protocol": "Monographella nivalis (Microdochium nivale)/Liquid Culture (Foot Rot Cereals)\nas §1, with “(PDB potato dextrose” for “(Vogels”, “4-5” for “3-4”"}, "[4]": {"system": "Magnaporthe grisea (Pyricularia oryzae)", "format": "cell-based", "conditions": "20 ppm; compared to untreated control; inhibition of growth determined photometrically 3-4 days after application, 24° C."}}, "data": [{"smiles": "CC(C)CC(C)(Cc1ccc(Cl)s1)C(=O)Nc1cnc2c(F)cccc2c1", "note": "(stereo not shown) [Compound E1, 2-[(5-chloro-2-thienyl)methyl]-N-(8-fluoro-3-quinolyl)-2,4-dimethyl-pentanamide]", "values": [{"measurement": "control of Botryotinia fuckeliana", "setting": "[1]", "result": "at least 80%"}, {"measurement": "control of Glomerella lagenarium", "setting": "[2]", "result": "at least 80%"}, {"measurement": "control of Fusarium culmorum", "setting": "Fusarium culmorum", "result": "at least 80%"}, {"measurement": "control of Gaeumannomyces graminis", "setting": "Gaeumannomyces graminis", "result": "at least 80%"}, {"measurement": "control of Monographella nivalis", "setting": "[3]", "result": "at least 80%"}, {"measurement": "control of Magnaporthe grisea", "setting": "[4]", "result": "at least 80%"}, {"measurement": "melting point", "result": "142 to 145", "unit": "°C"}]}]}
